Key:
[1] = system: Gumbus cells; experiment: Detection of reactive oxygen species (DCF-DA flow cytometry); type: cell-based, human; conditions: 25 μM, 10 min
Source text: (§1) It has long been observed that pentathiepins are able to produce reactive oxygen species outside of cells.16, 17, 20 Whether ROS production can also occur in living cells has not yet been reported. To determine if 4 can produce ROS in HL‐60 and Gumbus cells, the cytosolic ROS detector 2′,7′‐dichlorofluorescin diacetate (DCF−DA) was used. […] Thus, pentathiepins appear capable of generating ROS inside living cells within a very short period of time.
(§2) Detection of reactive oxygen species: To detect cellular reactive oxygen species (ROS) a flow cytometry technique based on the use of the ROS‐sensor 2′,7′‐dichlorofluorescin diacetate (DCF‐DA) was used.38 Briefly, cells were collected in reaction tubes and washed with 500 μL phosphate buffered saline (PBS). The cell pellets were resuspended in 1 mL PBS and stained with 2 μL DCF‐DA stock solution (10 mM in DMSO) for 30 min at 37 °C. Then cells were washed with 500 μL PBS and suspended in 1 mL PBS followed by addition of […] 4 ([…]) to a final concentration of 25 μM. After an incubation period of 10 min cells were washed with PBS, resuspended in 500 μL PBS and analyzed by flow cytometry with a MACSQuant Analyzer 10 (Miltenyi Biotec, Germany) set at λ Ex/Em=488/530 nm.

[2] = system: HL-60 cells; experiment: as above; type: cell-based, human; conditions: 25 μM, 10 min
Source text: as §1, §2

[3] = system: SISO cell line; experiment: MTT viability with ferrostatin-1 co-treatment (ferroptosis probe); type: cell-based, human; conditions: ferrostatin-1 1.5-6.0 μM, MTT 48 h
Source text: Another form of programmed cell death is ferroptosis, which is iron dependent and activated by lipid peroxidation (LPO) in the cell membrane.14 Unlike apoptosis, PARP cleavage is not observed in this cell death mechanism. GPx4, a membrane bound isoenzyme of GPx1, is believed to be a key protector of cells from ferroptosis by destroying lipid peroxides in the cell membrane.
MTT cell viability assay: For the detection of the inhibition of the viability of cells by the pentathiepins, the MTT‐viability assay was used.37 Briefly, 10 000 and 20 000 cells for the suspension cell lines HL‐60 and Gumbus, respectively, were seeded out in 50 μL medium per well and immediately exposed to the compounds. For the adherent cell lines SISO and HAP‐1, 3000 and 5000 cells, respectively, were seeded out in 96‐well plates and allowed to attach for 24 h. Cells were exposed to nine serial dilutions of compound, added to the medium from 1000‐fold concentrated stock solution in DMF. For the controls, cells were exposed to 0.1 % DMF alone. After 48 h incubation, 20 μL of the MTT stock solution (2.5 mg/mL in PBS) were added to each well to give a final concentration of 1.0 mM. […] Optical density was measured with a SpectraMax Plus 383 microtiter plate read at λ=570 nm (Molecular Devices, USA). […]

[4] = system: Gumbus cells; experiment: MTT cell viability assay; type: cell-based, human; conditions: 48 h
Description: (§3) We determined IC50 values for the viability reduction in a low micro molar range (Figure 6B).
(§4) MTT cell viability assay: For the detection of the inhibition of the viability of cells by the pentathiepins, the MTT‐viability assay was used.37 Briefly, 10 000 and 20 000 cells for the suspension cell lines HL‐60 and Gumbus, respectively, were seeded out in 50 μL medium per well and immediately exposed to the compounds. For the adherent cell lines SISO and HAP‐1, 3000 and 5000 cells, respectively, were seeded out in 96‐well plates and allowed to attach for 24 h. Cells were exposed to nine serial dilutions of compound, added to the medium from 1000‐fold concentrated stock solution in DMF. For the controls, cells were exposed to 0.1 % DMF alone. After 48 h incubation, 20 μL of the MTT stock solution (2.5 mg/mL in PBS) were added to each well to give a final concentration of 1.0 mM. The formazan crystals that formed after 4 h at 37 °C were dissolved by sonification after adding 100 μL of 0.04 M HCl in isopropanol for the suspension cell lines, or with 50 μL DMSO after aspiration of the medium for the adherent cell lines. Optical density was measured with a SpectraMax Plus 383 microtiter plate read at λ=570 nm (Molecular Devices, USA). Data of related absorption to control cells were imported into GraphPad Prism 6.0 software and IC50 values were generated by determining the inflection point of the sigmoidal log concentration‐viability inhibition curves.

[5] = system: SISO cells; experiment: MTT cell viability assay; type: cell-based, human; conditions: 48 h
Description: as §3, §4

[6] = system: HAP-1 cells; experiment: MTT cell viability assay; type: cell-based, human
Description: as §3, §4

[7] = system: SISO human cervix cancer cell line; experiment: Crystal violet proliferation assay; type: cell-based; conditions: Homo sapiens, 37 °C, 96 h, n>4, read-out: Inhibition of cell viability GI50 (CI 95 %)
Description: GI50 values for 50 % growth inhibition were all in a low micro molar range (Table 1). […] The indole−pentathiepins gave lower GI50 values than the pyrrolo[1,2‐a]quinoxaline derivatives. […] There was also a trend showing that an electron rich substituent in position R^2 increased the antiproliferative effect in SISO cells.
Crystal violet proliferation assay: To measure cell growth inhibition, the crystal violet assay was carried out as previously described.37 Adherent cell lines were seeded out in a 96‐well plate (1000 cells per 200 μL culture medium) and allowed to attach for 24 h. Cells were exposed to nine serial dilutions of compound, added to the medium from 1000‐fold concentrated stock solutions in DMF. For the controls, cells were exposed to 0.1 % DMF alone. After addition of compounds, plates for the detection of the starting point of the proliferation at incubation time zero (t 0) were stopped with glutaraldehyde (see below), washed with Dulbecco's buffer (containing KCl 0.2 g/L, MgSO4 ⋅ 7 H2O 0.1 g/L, Na2HPO4 ⋅ >7 H2O 1.55 g/L, KH2HPO4 0.2 g/L and NaCl 8 g/L in water) and stored at 4 °C until the staining procedure. Treated cells were incubated for 96 h in the incubator, the medium was removed and replaced with 100 μL of 1 % glutaraldehyde in Dulbecco's buffer for 20 min. After washing twice with 150 μL of Dulbecco's buffer, the buffer was removed and replaced with 100 μL of a 0.02 % crystal violet solution dissolved in water for 30 min and subsequently washed in tap water for 15 min. Water was removed and replaced with 100 μL of ethanol (70 % in water) followed by shaking on a 96‐well shaker (MS3 digital, IKA‐Werke, Germany) for 2 h. Optical density was measured with a SpectraMax Plus 383 microtiter plate reader at λ=570 nm (Molecular Devices, USA). The optical density of t 0 plates at the time of treatment were subtracted from optical densities of plates with treated cells after 96 h (T), and the growth inhibition relative to untreated, control cells (C) as described.22 Growth inhibition concentrations at 50 % (GI50) were calculated by determining the inflection point of the sigmoidal log dose‐growth inhibition (%T/C) curves with the GraphPad Prism 6.0 software.

[8] = Stability in presence of GSH by APCI-MS; type: physicochemical; conditions: 10 mM GSH, 23 °C, up to 1 h
Description: It has been reported that pentathiepins are instable in the presence of thiols such as GSH.20 Thus, the stability of a representative pentathiepin, 4, in the presence of GSH was studied first by APCI‐MS. Incubations of 4 in the presence of 10 mM GSH, a biologically relevant concentration, were monitored at 23 °C for a period up to 1 h. […] Next, the stability of 4 was studied by RP‐HPLC in the same buffer and with the same GSH concentration (0.25 mM) used in the GPx assay (see below). Over the course of a 70 min incubation a nearly 30 % loss of the pentathiepin (Figure S32) was observed. However, since the GPx assay is only run for 20 min, the direct reaction between 4 and GSH would only account for a ca. 10 % loss of pentathiepin under assay conditions.

[9] = Homo sapiens, MTT, read-out: IC50 for viability reduction

## CCOc1c2c(c3cnc4cc(C)c(C)cc4n13)SSSSS2 [Compound 4]
[1]
  ROS formation: significant burst of ROS
[2]
  ROS formation: rapid but not as intense as with the Gumbus line
[3]
  change of IC50 on co-treatment with ferrostatin-1: No significant changes in the IC50 value
[4]
  cell viability at highest tested concentration: complete loss of cell viability
[4]; [9]
  IC50: 2.2 to 3.1 µM
[5]
  cell viability at highest tested concentration: complete loss of cell viability
[5]; [9]
  IC50: 2.2 to 3.1 µM
[6]; 48 h
  cell viability at highest tested concentration: complete loss of cell viability
[6]; Homo sapiens, HAP1, 48 h, MTT, read-out: IC50 for viability reduction
  IC50: 2.2 to 3.1 µM
[7]
  GI50: 8.9 µM
[8]
  stability in presence of GSH (mass spectrum): No changes in the mass spectrum

Reference: paper PMC7496275, “Pentathiepins: A Novel Class of Glutathione Peroxidase 1 Inhibitors that Induce Oxidative Stress, Loss of Mitochondrial Membrane Potential and Apoptosis in Human Cancer Cells” (Chemmedchem, 2020)
